Source: patent US7223731B2, “Thrombospondin-1 type 1 repeat polypeptides” (Beth Israel Deaconess Medical Center, Inc., priority 2000, dated 2007)

Key:
[1] = system: Human dermal microvessel endothelial cells (HDMEC); assay: In vitro endothelial cell migration assay (FGF-2 induced, transwell); format: cell-based; details: for concentration maximally effective in inhibiting endothelial cell migration: HDMEC migration in response to FGF-2
Procedure: Human dermal microvessel endothelial cells (HDMEC) were isolated by the procedure of Richard et al., Exp. Cell Res. 240:1–6 (1998). The cells were cultured in Vitrogen precoated dishes, and maintained in EBM (Clonetics Corp, San Diego, Calif.) containing 20% fetal bovine serum (FBS), 1 mg/ml hydrocortisone acetate, 5×10^−5 M dibutyryl-cAMP, 200 U/ml penicillin, 100 U/ml streptomycin, 250 mg/ml amphotericin and 2–5 ng/ml VEGF. Murine melanoma B16F10 and murine Lewis lung carcinoma cells were obtained from the ATCC, and were maintained in Dulbecco's Modified Eagle Media (DMEM) supplemented with 10% FBS, […] penicillin, 50 U/ml streptomycin, and 2 mM glutamine (supplemented DMEM). Mink lung epithelial cells (MLECs-Clone 32) that have been stably transfected with an 800 bp fragment of the plasminogen activator inhibitor-1 (PAI-1) promoter fused to the firefly luciferase reporter gene were kindly provided by Dr. Daniel Rifkin (Abe, M. et al., Anal. Biochem. 216:276–284, 1994). The transfected MLECs were maintained in supplemented DMEM.
Cells at passage 7–10 were serum-starved and maintained in EBM with 0.1% BSA (control media) for 20 hours before trypsinization to harvest the cells. Cells were washed in EBM twice and resuspended in control media at a concentration of 1×10^6 cells/ml. […] of cells were packed down and kept frozen. They were lysed and serially diluted by CyQuant reagent (Molecular Probe, Eugene, Oreg.) to be used for standard curve construction.
Transwell membrane (24-well polycarbonate membrane, […] from Corning Costar Corporation, Cambridge, Mass.) coated with Vitrogen (30 mg/ml, Invitrogen) on both sides was used for chemotactic migration experiments. Coated transwells were inverted, […] of cell suspension applied to the top of the membrane and covered by the bottom plate carefully so that the cell suspension stayed on top of the membrane. The cells were allowed to adhere to the coated membrane for two hours in an incubator at 37° C. with 5% CO2. After the adhesion incubation, the plates were re-inverted, the bottom wells were filled with 0.4 ml control media and the top wells were filled with 0.1 ml control media containing testing reagents. The plate was returned to the incubator for 3.5 hours for the cells to migrate. At the end of the incubation, the transwells were washed in PBS and the cells on the […] of the membrane (unmigrated cells) were wiped away with a cotton swab. The membranes were cut out by scalpel and placed into 96-well plates and frozen at −80° C. overnight. […] Fluorescence reading was done 16 hours later with a SpectraFluor plate reader with excitation at 485 nm and emission at […]. The number of cells migrated was then calculated based on the standard curve.

Lewis lung carcinoma = assay: Primary tumor growth assay, Lewis lung carcinoma; format: in vivo, C57BL/6 mice; details: 2.5 mg/kg/day IP daily, treatment day 12
Procedure: The proteins for injection were mixed with Polymyxin B-Agarose (Sigma) for 30 minutes at room temperature to remove endotoxin. The endotoxin levels were less than 0.05 EU/mg as determined using the QCL-1000 assay kit (Biowhittaker, Walkersville, Md.). Proteins were filter-sterilized and the protein concentration was determined prior to injection. Five to eight week old C57BL/6 mice (Taconic, Germantown, N.Y.) were acclimated, caged in groups of four or less and their backs were shaved. Cultured B16F10 melanoma or Lewis lung carcinoma cells (1×10^6) were inoculated subcutaneously on the back of each mouse. Tumors were measured with a dial-caliper and the volumes were determined using the formula width^2×length×0.52. The treatment began 4 days after inoculation of the tumor cells. […] The experiments were terminated and mice sacrificed when the control mice began to die, usually at day 16 post-tumor cell injection.

B16F10 melanoma = assay: Primary tumor growth assay, B16F10 melanoma; format: in vivo, C57BL/6 mice; details: for inhibition of B16F10 tumor growth: twelfth day of treatment
Procedure: The proteins for injection were mixed with Polymyxin B-Agarose (Sigma) for 30 minutes at room temperature to remove endotoxin. The endotoxin levels were less than 0.05 EU/mg as determined using the QCL-1000 assay kit (Biowhittaker, Walkersville, Md.). Proteins were filter-sterilized and the protein concentration was determined prior to injection.
Five to eight week old C57BL/6 mice (Taconic, Germantown, N.Y.) were acclimated, caged in groups of four or less and their backs were shaved. Cultured B16F10 melanoma or Lewis lung carcinoma cells (1×10^6) were inoculated subcutaneously on the back of each mouse. Tumors were measured with a dial-caliper and the volumes were determined using the formula width^2×length×0.52. The treatment began 4 days after inoculation of the tumor cells. […] The experiments were terminated and mice sacrificed when the control mice began to die, usually at day 16 post-tumor cell injection.
Each treatment group contained six five- to eight-week old C57BL/6 mice. Treatment was initiated four days after subcutaneous injection of 1×10^6 B16F10 melanoma cells. The mice received one IP injection each day of saline, TSR2, TSR2+RFK or TSR2+QFK (SEQ ID NO: 23). A soluble form of the TGFβ receptor (100 μg/mouse/injection) (Smith, J. D. et al., Circulation Research 84:1212–1222, 1999) was included in the saline or TSR2+RFK injections on treatment day 1 and 7 for two additional experimental groups. The recombinant TSR-containing proteins were used at 1.0 mg/kg/day.
Each treatment group contained six five- to eight-week old C57BL/6 mice. Treatment was initiated four days after subcutaneous injections of 1×10^6 B16F10 melanoma cells. The mice received one IP injection each day, of saline, all three type 1 repeats of human TSP-1 [3TSR (TSP1) in FIG. 9] or all three type 1 repeats of mouse TSP-2 [3TSR (TSP2) in FIG. 9]. Recombinant proteins were used at a dose of 2.5 mg/kg/day.

B16F10 tumor cell = B16F10 tumor cell proliferation in vitro; format: cell-based, murine
B16F10 tumors = assay: Histological examination of B16F10 tumors (anti-CD31, TUNEL, PCNA); format: in vivo, C57BL/6 mice; details: 1.0 mg/kg/day, twelfth treatment day; for decrease in number of proliferating tumor cells: PCNA positive cells; for increase in tumor cell apoptosis: TUNEL; for reduction in capillary density: anti-CD31
Procedure: The tumor tissues were cut, fixed with neutral buffered formaldehyde, and embedded in paraffin according to standard histological procedures. Hematoxylin and eosin staining was employed for tissue morphology examination. Blood vessels were immunochemically stained by anti-CD31 antibody with a Vectastain ABC kit (Vector Laboratories, Burlingame, Calif.). Tumor cell apoptosis was detected by TUNEL assay (Abe, M. et al., Anal. Biochem, 216:276–84, 1994). The number of blood vessels was recorded by counting ten high-power fields. Tumor cell proliferation and the apoptotic index were estimated by the percentage of cells scored under a light microscope. A minimum of 1,000 cells was counted in each tumor sample. To better understand the effect of the recombinant protein treatment on tumor growth, we have determined the rate of proliferation, the apoptotic index and the capillary density for tumors in the saline control group, mice treated with the TSR2+RFK protein or mice treated with the TSR2 protein at an intermediate dose (1.0 mg/kg/day) where the largest effect of inclusion of the RFK sequence is observed. Tumors were removed and fixed on the twelfth treatment day. Capillaries were visualized with anti-CD31 antibody and apoptotic cells were identified by TUNEL. […] The number of proliferating cells was decreased by 35% by treatment with the TSR2+RFK protein (p<0.005), while treatment with the TSR2 protein reduced tumor cell proliferation by 7.8% (p<0.05) (FIG. 6C).

TGFβ = assay: Assay for TGFβ activation (MLEC luciferase assay on B16F10 conditioned media); format: cell-based, murine; details: for level of the active form of TGFβ as % of the total TGFβ: 5 μg/ml protein added, media conditioned by B16F10 melanoma cells, control 6.3%; for activation of TGFβ (in words): culture supernatant from B16F10 cells
Procedure: Human dermal microvessel endothelial cells (HDMEC) were isolated by the procedure of Richard et al., Exp. Cell Res. 240:1-6 (1998). The cells were cultured in Vitrogen precoated dishes, and maintained in EBM (Clonetics Corp, San Diego, Calif.) containing 20% fetal bovine serum (FBS), 1 mg/ml hydrocortisone acetate, 5×10^-5 M dibutyryl-cAMP, 200 U/ml penicillin, 100 U/ml streptomycin, 250 mg/ml amphotericin and 2-5 ng/ml VEGF. Murine melanoma B16F10 and murine Lewis lung carcinoma cells were obtained from the ATCC, and were maintained in Dulbecco's Modified Eagle Media (DMEM) supplemented with 10% FBS, […] penicillin, 50 U/ml streptomycin, and 2 mM glutamine (supplemented DMEM). Mink lung epithelial cells (MLECs-Clone 32) that have been stably transfected with an 800 bp fragment of the plasminogen activator inhibitor-1 (PAI-1) promoter fused to the firefly luciferase reporter gene were kindly provided by Dr. Daniel Rifkin (Abe, M. et al., Anal. Biochem. 216:276-284, 1994). The transfected MLECs were maintained in supplemented DMEM. B16F10 cells (2.5×10^5) were plated in a T25 flask and grown overnight in supplemented DMEM. The cells were rinsed once with 1.0 ml of serum-free DMEM and 2.5 ml of serum-free DMEM containing […] of the TSR, or […] recombinant protein were added. After an overnight incubation, conditioned media was collected and centrifuged at 12,000 rpm for 5 min to remove cellular debris. Undiluted media was used to determine the level of active TGFβ. The level of total TGFβ was determined by incubating the media at 80° C. for 10 min and diluting 1:5 in DMEM. One hundred microliters of conditioned media were added to wells of a 96-well plate containing 3×10^4 MLECs and the plates were incubated overnight. A standard curve was constructed by incubating 7.8 to 250 pg/ml of purified TGFβ with the […].) in DMEM. The media was removed and the cells were washed 3 times with cold PBS prior to the addition of […] of lysis buffer (PharMingen, San Diego, Calif.). Luciferase activity was measured using the Enhanced Luciferase Assay Kit PharMingen).

## 3TSR: recombinant protein containing all three TSRs of human TSP-1, amino acids 361–530
[1]
  concentration maximally effective in inhibiting endothelial cell migration: 10 ng/mL
Lewis lung carcinoma
  inhibition of Lewis lung carcinoma tumor growth: 73%
B16F10 melanoma; 0.25 mg/kg/day IP daily
  B16F10 tumor growth inhibition (in words): less effective
B16F10 melanoma; 2.5 mg/kg/day IP daily
  inhibition of B16F10 tumor growth (tumor volume): 81%
B16F10 melanoma; 10 mg/kg/day
  B16F10 tumor growth inhibition (in words): remains maximally active
B16F10 melanoma; dosages of 1.0 mg/kg/day and greater
  B16F10 tumor growth inhibition compared with TSP-1 (in words): more effective than TSP-1

## TGFβ [reference compound]
B16F10 tumor cell
  B16F10 tumor cell proliferation in vitro (in words): inhibit

## TSP-1: Human TSP-1 purified from the supernatant of thrombin-treated platelets
[1]; biphasic response, concentrations above this level are less effective
  concentration up to which inhibition of endothelial cell migration is dose-dependent: 100 ng/mL
B16F10 melanoma; 0.25 mg/kg/day (0.6 nmoles/kg/day) injection
  reduction of tumor growth: 56%
B16F10 melanoma; 2.5 mg/kg/day IP daily
  B16F10 tumor growth inhibition (in words): no effect
B16F10 melanoma; systemic injection, 0.25 mg/ml as printed, twelfth treatment day
  inhibition of tumor growth: 56%

## TSR2+QFK: recombinant version of the TSR2+RFK protein in which Q is substituted for R (arginine 413 to glutamine)
B16F10 melanoma; 1.0 mg/kg/day IP daily, FIG. 8
  B16F10 tumor growth inhibition (in words): less effective as an inhibitor of tumor growth than TSR2+RFK

## TSR2: recombinant protein that contains the second TSR of human TSP-1, amino acids 416–473, excludes DKRFK
B16F10 tumors
  decrease in number of proliferating tumor cells: 7.8%
  increase in tumor cell apoptosis: 1.9 fold
  reduction in capillary density: 64%
[1]
  concentration maximally effective in inhibiting endothelial cell migration: 10 ng/mL
TGFβ
  level of the active form of TGFβ as % of the total TGFβ: 4.8%
  activation of TGFβ (in words): does not
B16F10 melanoma; 0.25 mg/kg/day IP daily
  B16F10 tumor growth inhibition (in words): indistinguishable from the control group
B16F10 melanoma; 1.0 mg/kg/day IP daily
  inhibition of B16F10 tumor growth: 38%
B16F10 melanoma; 2.5 mg/kg/day IP daily
  inhibition of B16F10 tumor growth (tumor volume): 68%

B1: TSR2+RFK: recombinant longer version of the second type 1 repeat of human TSP-1 including the RFK sequence, amino acids 411–473 (protein, listed as Homo sapiens)
chain: DKRFKQDGGWSHWSPWSSCSVTCGDGVITRIRLCNSPSPQMNGKPCEGEARETKACKKDACPI
B16F10 tumors
  decrease in number of proliferating tumor cells: 35%
  increase in tumor cell apoptosis: 4 fold
  reduction in capillary density: 71%
[1]
  concentration maximally effective in inhibiting endothelial cell migration: 10 ng/mL
Lewis lung carcinoma
  inhibition of Lewis lung carcinoma tumor growth: 77%
TGFβ
  level of the active form of TGFβ as % of the total TGFβ: 30%
  activation of TGFβ (in words): activates TGFβ
B16F10 tumor cell
  B16F10 tumor cell proliferation in vitro (in words): inhibit
B16F10 melanoma; 1.0 mg/kg/day IP daily
  inhibition of B16F10 tumor growth: 80%
B16F10 melanoma; 2.5 mg/kg/day IP daily
  inhibition of B16F10 tumor growth (tumor volume): 86%

B2: 3TSR (TSP2): recombinant protein with all three TSRs of mouse TSP-2, amino acids Asp 381 through Ile 550 (protein, listed as Mus musculus)
chain: DEGWSPWAEWTECSVTCGSGTQQRGRSCDVTSNTCLGPSIQTRTCSLGKCDTRIRQNGGWSHWSPWSSCSVTCGVGNVTRIRLCNSPVPQMGGKNCKGSGRETKPCQRDPCPIDGRWSPWSPWSACTVTCAGGIRERSRVCNSPEPQYGGKDCVGDVTEHQMCNKRSCPI
B16F10 melanoma; 2.5 mg/kg/day IP daily
  B16F10 tumor growth inhibition (in words): significantly less potent
